Assay [1] relates to CD4+ve Th. The experiment in a line: Inhibition of Th1 cell differentiation in human peripheral blood CD4+ve Th cells assessed as decrease in IFNgamma production measured after 5 days. Type of assay: functional, cell-based. Particulars: 120 h.
Assay [2] has as its target Human immunodeficiency virus type 1 reverse transcriptase (Human immunodeficiency virus 1, UniProt Q72547, Y181C). The experiment in a line: Inhibition of HIV-1 reverse transcriptase Y181C mutant.
For assay [3], the target named is T1, Cyclin-dependent kinase 2 (Homo sapiens, UniProt P24941). Description: Inhibition of CDK2 (unknown origin).
The target in assay [4] is T1, Cyclin-dependent kinase 2. The experiment in a line: Inhibition of pan-CDK2 (unknown origin) relative to control. The note with it: concentration not given here.
For assay [5], the system named is Jurkat. Description: Antiproliferative activity against human Jurkat cells assessed as inhibition of cell growth incubated for 72 hrs by Celltiter Glo assay. Type of assay: functional, cell-based. (In general: ATP-based viability assays read luminescence as a measure of living cells.)
The target of assay [6] is CDK7/Cyclin H/MNAT1 (Homo sapiens, UniProt P50613). The experiment in a line: Inhibition of CDK7/Cyclin H/MAT1 (unknown origin) in leukemia cells. Type of assay: cell-based, Leukemia cell.

The source of these data is ChEMBL document CHEMBL5104233, “Advanced approaches of developing targeted covalent drugs” (RSC Med Chem, 2022).

Structures are written as SMILES.

Sequence of CDK7/Cyclin H/MNAT1 (P51946 whole entry): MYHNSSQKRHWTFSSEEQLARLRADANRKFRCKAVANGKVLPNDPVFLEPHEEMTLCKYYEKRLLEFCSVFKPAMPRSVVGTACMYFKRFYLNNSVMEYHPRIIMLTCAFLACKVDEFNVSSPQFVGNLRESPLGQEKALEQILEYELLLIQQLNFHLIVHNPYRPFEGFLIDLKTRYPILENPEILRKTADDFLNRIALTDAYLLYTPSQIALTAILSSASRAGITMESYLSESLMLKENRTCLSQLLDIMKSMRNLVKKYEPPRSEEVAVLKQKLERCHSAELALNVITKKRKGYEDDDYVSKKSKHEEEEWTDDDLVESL
Sequence of CDK7/Cyclin H/MNAT1 (P50613 whole entry): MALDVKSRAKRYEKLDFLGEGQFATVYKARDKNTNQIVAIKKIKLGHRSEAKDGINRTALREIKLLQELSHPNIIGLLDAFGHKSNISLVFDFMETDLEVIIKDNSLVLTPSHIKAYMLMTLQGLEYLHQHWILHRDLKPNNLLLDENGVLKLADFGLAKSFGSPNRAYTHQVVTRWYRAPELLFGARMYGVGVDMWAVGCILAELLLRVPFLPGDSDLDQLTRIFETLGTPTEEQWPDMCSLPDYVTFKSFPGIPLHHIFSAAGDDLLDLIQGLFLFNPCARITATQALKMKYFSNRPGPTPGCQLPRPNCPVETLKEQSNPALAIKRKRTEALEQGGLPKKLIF
Sequence of CDK7/Cyclin H/MNAT1 (P51948 whole entry, further chain): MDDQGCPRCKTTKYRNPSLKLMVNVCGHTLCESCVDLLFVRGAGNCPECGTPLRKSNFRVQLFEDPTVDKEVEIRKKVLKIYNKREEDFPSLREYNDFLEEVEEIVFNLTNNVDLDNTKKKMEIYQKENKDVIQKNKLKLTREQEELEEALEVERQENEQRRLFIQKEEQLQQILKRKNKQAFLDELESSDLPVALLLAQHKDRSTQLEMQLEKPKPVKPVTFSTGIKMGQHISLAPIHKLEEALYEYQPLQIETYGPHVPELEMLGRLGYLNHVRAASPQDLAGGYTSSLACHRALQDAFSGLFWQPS

For `C=CC(=O)N1C[C@H](Nc2ncnc3[nH]ccc23)CC[C@@H]1C` [RITLECITINIB], the IC50 in assay [1] was determined as 0.048 µM.
For the compound `Cc1c(Oc2ccccc2OCCn2ccc(=O)[nH]c2=O)cc(N(C)C(=O)CCl)c2ccc(C#N)cc12`, 0.48 µM corresponded to half-maximal inhibition in assay [2] (IC50).
In assay [3], `C=CS(=O)(=O)c1ccc(Nc2nc(OCC3CCCCC3)c3nc[nH]c3n2)cc1` gave a concentration for half-maximal inhibition (IC50) of 0.16 µM. The compound further gave an inhibition in assay [4] of 50%.
Regarding `CN(C)C/C=C/C(=O)Nc1ccc(C(=O)N2CCC[C@H](Nc3ncc(Cl)c(-c4c[nH]c5ccccc45)n3)C2)cc1`, the IC50 in assay [5] worked out at 0.05 µM.
Compound `C=C(F)C(=O)N1CCN(c2nc(OC[C@@H]3CCCN3C)nc3c2CCN(c2cccc4cccc(Cl)c24)C3)C[C@@H]1CC#N` [ADAGRASIB] yielded an IC50 in assay [6] of 0.0013 µM.
`C=CC(=O)N(C)c1cc(Oc2ccccc2OCCn2ccc(=O)[nH]c2=O)c(C)c2cc(C#N)ccc12` yielded a half-maximal inhibitory concentration (IC50) in assay [2] of 0.4 µM.

By IC50 is commonly meant the concentration that inhibits the measured activity by half. A word on the inhibition: it is the drop in the measured response relative to a control, in per cent.
